Here are results for 4 compounds from patent EP0342577B1, “Use of dihydropyridine derivatives for the prophylaxis or treatment of cerebral circulation disorders” (YOSHITOMI PHARMACEUTICAL INDUSTRIES, LTD., priority 1988, dated 1989).

Experiment [1] relates to Cerebral blood flow amount. The experiment can be described thus: Selectivity in cerebral hyperkinemic action: cerebral blood flow amount (electromagnetic flow meter, left vertebral artery). It is filed as in vivo. As to conditions: dogs, intravenous; for Cerebral blood flow amount ED200: dose at which the rate of increase is 200%. The protocol:
(§1) The selectivity in cerebral hyperkinemic action was studied by examining the rates of increase in coronary blood flow amount and cerebral blood flow amount as to various dihydropyridine derivatives.
(§2) Various dihydropyridine derivatives were intravenously administered to dogs (weighing 9 - 16 kg, 4 animals per group) at a dose of 1 - 100 µg/kg body weight. At the lapse of 1, 3, 5, 10, 30, 60, 90 and 120 minutes after the intravenous administration, the coronary blood flow amount and cerebral blood flow amount were measured, and the rates of increase in the blood flow amount were estimated.
(§3) Cerebral blood flow was measured by equipping the left vertebral artery with the probe of the electromagnetic flow meter, and recorded continuously on the polygraph.
(§4) The ED200 (µg/kg body weight) indicates the dose at which the rate of increase is 200%.

Experiment [2] deals with Cerebral blood flow amount. Description: Duration time of cerebral hyperkinemic action: cerebral blood flow with the lapse of time. It counts as in vivo. Also noted: unit not given here. As to conditions: dogs, intravenous, 30 µg/kg body weight. The protocol: as §2, §3
By examining the rate of increase in cerebral blood flow by various dihydropyridine derivatives with the lapse of time, the duration of cerebral hyperkinemic action was studied.

For experiment [3], the system named is Coronary blood flow amount. Description: Selectivity in cerebral hyperkinemic action: coronary blood flow amount (electromagnetic flow meter, left coronary artery circumflex ramus). It is filed as in vivo. As to conditions: dogs, intravenous; for Coronary blood flow amount ED200: dose at which the rate of increase is 200%. On the procedure:
as §1, §2
Coronary blood flow was measured by equipping the left coronary artery circumflex ramus with the probe of the electromagnetic flow meter, and recorded on the polygraph.
as §4

For experiment [4], the system named is both common carotid arteries-ligated rats. The experiment can be described thus: Inhibitory effect on symptoms of both common carotid arteries-ligated rats. It is filed as in vivo, Spontaneously hypertensive rats (SHR·SR). The settings on record: SHR·SR rats, oral, dose 0.1 mg/kg, given one hour before ligation; neural symptom score 0 (normal) to 4 (death) two hours after skin suture; control (None) 2.8. On the procedure:
Spontaneously hypertensive rats (SHR·SR; Japan Charles River Co.) were used for the experiment (9-10 rats per group).
The compound 2-2 of the present invention was orally administered forsively to the rats at a dose of 10 ml/kg. To the control group was administered 0.3% Tween® 80 solely at a dose of 10 ml/kg. One hour later, cervical part was incised and both common carotid arteries were ligated with a suture thread almost simultaneously. Two hours after skin suture, observation was made for their neural symptom and/or death. The results are expressed in five-rank scores below.

Structures are written as SMILES.

Take `COC(=O)C1=C(C)NC(C)=C(C(=O)OCCc2ccc(N3CCN(C(c4ccccc4)c4ccccc4)CC3)cc2)C1c1cc(C#N)ccn1` (stereo not drawn) [Compound 1-2, 2-[p-(4-Benzhydrylpiperazino)phenyl]ethyl methyl 2,6-dimethyl-4-(4-cyano-2-pyridyl)-1,4-dihydropyridine-3,5-dicarboxylate]: the “Cerebral blood flow amount Increase rate (%)” value amounted to 186% in experiment [1] (dose 10 µg/kg body weight), 223% in experiment [1] (dose 30 µg/kg body weight) and 385% in experiment [1] (dose 100 µg/kg body weight). Also, the “Cerebral blood flow amount ED200” value in experiment [1] is 15 µg/kg body weight. Further, the “Rate of increase in cerebral blood flow amount” value (shortened to “Rate of increase”) in experiment [2] (5 min after administration) came out at 183; in experiment [2] (10 min after administration), 222; in experiment [2] (30 min after administration), 190; in experiment [2] (60 min after administration), 151; in experiment [2] (120 min after administration) it was 132. Besides, the “Coronary blood flow amount Increase rate (%)” value was 131% in experiment [3] (dose 10 µg/kg body weight), 156% in experiment [3] (dose 30 µg/kg body weight) and 246% in experiment [3] (dose 100 µg/kg body weight). The “Coronary blood flow amount ED200” value in experiment [3] was 48 µg/kg body weight.
For the compound `COC(=O)C1=C(C)NC(C)=C(C(=O)OCCc2ccc(N3CCN(C(c4ccccc4)c4ccccc4)CC3)cc2)C1c1cccc([N+](=O)[O-])c1` (stereo not drawn) [Compound 2-2, 2-[p-(4-Benzhydrylpiperazino)phenyl]ethyl methyl 2,6-dimethyl-4-(3-nitrophenyl)-1,4-dihydropyridine-3,5-dicarboxylate], the “Cerebral blood flow amount Increase rate (%)” value in experiment [1] (dose 10 µg/kg body weight) worked out at 197%; in experiment [1] (dose 30 µg/kg body weight), 301%; in experiment [1] (dose 100 µg/kg body weight), 433%. For the same compound, the “Cerebral blood flow amount ED200” value in experiment [1] came to 11 µg/kg body weight. Also, the “Rate of increase” value in experiment [2] (5 min after administration) is given as 137; in experiment [2] (10 min after administration), 170; in experiment [2] (30 min after administration), 285; in experiment [2] (60 min after administration), 300; in experiment [2] (120 min after administration), 237. Also, the “Coronary blood flow amount Increase rate (%)” value is 125% in experiment [3] (dose 10 µg/kg body weight), 174% in experiment [3] (dose 30 µg/kg body weight) and 207% in experiment [3] (dose 100 µg/kg body weight). For the same compound, the “Coronary blood flow amount ED200” value in experiment [3] is given as 75 µg/kg body weight. Besides, the Average score in experiment [4] came out at 1.7.
Take `COC(=O)C1=C(C)NC(C)=C(C(=O)OCCN(C)Cc2ccccc2)C1c1cccc([N+](=O)[O-])c1` (stereo not drawn) [Nicardipine, reference compound]: the “Cerebral blood flow amount Increase rate (%)” value in experiment [1] (dose 3 µg/kg body weight) is 165%; in experiment [1] (dose 10 µg/kg body weight), 197%; in experiment [1] (dose 30 µg/kg body weight), 238%. The “Cerebral blood flow amount ED200” value in experiment [1] came to 9.7 µg/kg body weight. Also, the “Rate of increase” value in experiment [2] (5 min after administration) stood at 237; in experiment [2] (10 min after administration) it was 189; in experiment [2] (30 min after administration), 129; in experiment [2] (60 min after administration) it was 109. Also, the results for the “Coronary blood flow amount Increase rate (%)” value in experiment [3] (dose 3 µg/kg body weight), in experiment [3] (dose 10 µg/kg body weight) and in experiment [3] (dose 30 µg/kg body weight) were 154%, 206% and 240%, respectively. Besides, in experiment [3], the “Coronary blood flow amount ED200” value amounted to 9.7 µg/kg body weight.
Take `COCCOC(=O)C1=C(C)NC(C)=C(C(=O)OC(C)C)C1c1cccc([N+](=O)[O-])c1` (stereo not drawn) [Nimodipine, reference compound]: the “Cerebral blood flow amount Increase rate (%)” value was 146% in experiment [1] (dose 1 µg/kg body weight), 167% in experiment [1] (dose 3 µg/kg body weight) and 196% in experiment [1] (dose 10 µg/kg body weight). Besides, the “Cerebral blood flow amount ED200” value in experiment [1] is 13 µg/kg body weight. Further, the “Rate of increase” value in experiment [2] (5 min after administration) was found to be 163; in experiment [2] (10 min after administration) it was 152; in experiment [2] (30 min after administration), 129; in experiment [2] (60 min after administration), 113. Moreover, the “Coronary blood flow amount Increase rate (%)” value in experiment [3] (dose 1 µg/kg body weight) came to 125%; in experiment [3] (dose 3 µg/kg body weight), 141%; in experiment [3] (dose 10 µg/kg body weight), 191%. Besides, the “Coronary blood flow amount ED200” value in experiment [3] stood at 16 µg/kg body weight.
